From ChEMBL document CHEMBL1201862, “PubChem BioAssay data set” (2004)
Active and inactive are the calls of the source.

Assays:
[1] = Luminescence Cell-Based Dose Confirmation HTS to Identify Inhibitors of Platelet Dense Granule Release. [Related pubchem assays: 1663 (Primary HTS), 1678 (Summary of Project)]; type: functional
[2] = HepG2 cell cytotoxicity, dose response, cytotoxicity control, ATP luminescence, cherry-pick, activator set 2 (AID 1053143); type: functional, cell-based
[3] = biological target: Luciferin 4-monooxygenase (Photinus pyralis, UniProt P08659); assay: firefly luciferase enzyme inhibitors, dose response, biochemical, luminescence (AID 1891)
Sequence of Luciferin 4-monooxygenase (P08659 whole entry): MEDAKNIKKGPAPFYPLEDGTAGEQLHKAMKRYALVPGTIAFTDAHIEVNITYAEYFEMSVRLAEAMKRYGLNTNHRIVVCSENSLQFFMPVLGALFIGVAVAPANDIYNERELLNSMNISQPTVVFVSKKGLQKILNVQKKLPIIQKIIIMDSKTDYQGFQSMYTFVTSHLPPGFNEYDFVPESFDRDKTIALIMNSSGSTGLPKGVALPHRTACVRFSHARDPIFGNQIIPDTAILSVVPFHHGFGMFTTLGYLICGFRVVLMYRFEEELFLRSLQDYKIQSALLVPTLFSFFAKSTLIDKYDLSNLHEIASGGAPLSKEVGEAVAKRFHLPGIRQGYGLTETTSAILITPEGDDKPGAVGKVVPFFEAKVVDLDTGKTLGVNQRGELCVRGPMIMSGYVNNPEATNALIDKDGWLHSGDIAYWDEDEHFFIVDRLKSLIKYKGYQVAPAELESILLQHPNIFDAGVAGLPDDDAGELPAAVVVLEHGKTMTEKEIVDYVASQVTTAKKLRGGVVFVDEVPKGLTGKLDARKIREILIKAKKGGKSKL

[4] = inhibitors of intracellular T. cruzi replication, confirmation, NIH3T3 host cells, beta-gal luminescence (AID 2044); type: functional, cell-based;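 further: intracellular parasites grown in NIH/3T3 mouse fibroblasts as host cells; luminescent beta-galactosidase reporter signal from transgenic T. cruzi replicating inside host cells; inhibitors lower the luminescence signal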
[5] = cytotoxicity toward NIH3T3 fibroblasts, dose response, counter-screen, cell-based, ATP luminescence, mouse fibroblasts (AID 2010); type: functional;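 further: cells exposed to compound for about 90 hours before reading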
[6] = Concentration-dependent survival of SW480 colon cancer line, luminescence detection with CellTiter-Glo, half-maximal inhibitory concentration (AID 1117338); type: functional
[7] = cytotoxicity toward HT-29 cells – cell-based, CellTiter-Glo luminescence, IC50, dose response (AID 1117330); type: functional
[8] = cytotoxicity toward Colo320 cells – cell-based, CellTiter-Glo luminescence, IC50, dose response (AID 1117334); type: functional; settings: COLO 320
[9] = CellTiter-Glo luminescent dose response of DLD-1 viability loss (AID 1117352); type: functional
[10] = SNU-C1 cell viability reduction, dose response, CellTiter-Glo luminescence (AID 1117323); type: functional, cell-based
[11] = RKO cell viability reduction, dose response, CellTiter-Glo luminescence (AID 1117322); type: functional
[12] = cytotoxicity toward HCT116 cells – cell-based, CellTiter-Glo luminescence, IC50, dose response (AID 1117332); type: functional; settings: HCT-116
[13] = cells
[14] = miR-122 activators in hepatoma reporter cells, dose response, cell-based, Huh7 psiCHECK-miR122, Renilla luciferase, cherry-picked (AID 651956); type: functional;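 further: huh7 hepatoma cells stably carrying a psiCHECK-2 miR-122 sensor plasmid; renilla luciferase signal reporting endogenous miR-122 activity after 48 h compound exposure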
[15] = HEK293T cytotoxicity, dose response, cytotoxicity control for miR-122 modulator project, cell-based, inhibitor set, cherry-pick, set 2 (AID 720697); type: functional
[16] = biological target: Melanocortin receptor 4 (Homo sapiens, UniProt P32245); type: functional, cell-based;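 further: Cell-based assay with luminescence read-out, confirmatory dose-response testing for agonist activity of biased ligands at MC4R; human U2OS cells with tagged receptor and beta-arrestin; potency of agonists that increase receptor coupling to beta-arrestin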
Sequence of Melanocortin receptor 4 (P32245 whole entry): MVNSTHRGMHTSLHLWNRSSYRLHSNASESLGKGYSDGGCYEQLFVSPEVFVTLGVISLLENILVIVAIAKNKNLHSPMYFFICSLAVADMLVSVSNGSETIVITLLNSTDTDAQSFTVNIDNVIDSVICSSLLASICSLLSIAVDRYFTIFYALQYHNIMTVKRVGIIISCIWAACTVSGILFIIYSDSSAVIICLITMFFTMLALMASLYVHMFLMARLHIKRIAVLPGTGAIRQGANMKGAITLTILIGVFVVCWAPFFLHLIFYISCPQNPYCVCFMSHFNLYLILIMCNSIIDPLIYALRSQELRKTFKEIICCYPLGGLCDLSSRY

[17] = Shn3 3'UTR reporter inhibitors, dose response, cell-based, Clone20 osteoblasts, firefly luciferase, cherry-picked (AID 624132); type: functional;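 further: firefly luciferase luminescence from reporter carrying the Shn3 3'UTR in osteoblasts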
[18] = HEK293T cytotoxicity, dose response, cytotoxicity control for miR-122 modulator project, cell-based, activator set, cherry-pick (AID 720690); type: functional;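 further: HEK293T human cells scored for general mammalian cytotoxicity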
[19] = human group III sPLA2 inhibitors, dose response, biochemical, QFRET, IC50 (AID 743457);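 further: green fluorescence rise as the enzyme cleaves BODIPY PC-A2 in liposomes; potency for inhibition of the enzyme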
[20] = cells; type: functional, cell-based; settings: HEK-CNG
[21] = biological target: T1, Histone-lysine N-methyltransferase NSD2 (Homo sapiens, UniProt O96028); type: biochemical
T1 sequence (O96028 whole entry): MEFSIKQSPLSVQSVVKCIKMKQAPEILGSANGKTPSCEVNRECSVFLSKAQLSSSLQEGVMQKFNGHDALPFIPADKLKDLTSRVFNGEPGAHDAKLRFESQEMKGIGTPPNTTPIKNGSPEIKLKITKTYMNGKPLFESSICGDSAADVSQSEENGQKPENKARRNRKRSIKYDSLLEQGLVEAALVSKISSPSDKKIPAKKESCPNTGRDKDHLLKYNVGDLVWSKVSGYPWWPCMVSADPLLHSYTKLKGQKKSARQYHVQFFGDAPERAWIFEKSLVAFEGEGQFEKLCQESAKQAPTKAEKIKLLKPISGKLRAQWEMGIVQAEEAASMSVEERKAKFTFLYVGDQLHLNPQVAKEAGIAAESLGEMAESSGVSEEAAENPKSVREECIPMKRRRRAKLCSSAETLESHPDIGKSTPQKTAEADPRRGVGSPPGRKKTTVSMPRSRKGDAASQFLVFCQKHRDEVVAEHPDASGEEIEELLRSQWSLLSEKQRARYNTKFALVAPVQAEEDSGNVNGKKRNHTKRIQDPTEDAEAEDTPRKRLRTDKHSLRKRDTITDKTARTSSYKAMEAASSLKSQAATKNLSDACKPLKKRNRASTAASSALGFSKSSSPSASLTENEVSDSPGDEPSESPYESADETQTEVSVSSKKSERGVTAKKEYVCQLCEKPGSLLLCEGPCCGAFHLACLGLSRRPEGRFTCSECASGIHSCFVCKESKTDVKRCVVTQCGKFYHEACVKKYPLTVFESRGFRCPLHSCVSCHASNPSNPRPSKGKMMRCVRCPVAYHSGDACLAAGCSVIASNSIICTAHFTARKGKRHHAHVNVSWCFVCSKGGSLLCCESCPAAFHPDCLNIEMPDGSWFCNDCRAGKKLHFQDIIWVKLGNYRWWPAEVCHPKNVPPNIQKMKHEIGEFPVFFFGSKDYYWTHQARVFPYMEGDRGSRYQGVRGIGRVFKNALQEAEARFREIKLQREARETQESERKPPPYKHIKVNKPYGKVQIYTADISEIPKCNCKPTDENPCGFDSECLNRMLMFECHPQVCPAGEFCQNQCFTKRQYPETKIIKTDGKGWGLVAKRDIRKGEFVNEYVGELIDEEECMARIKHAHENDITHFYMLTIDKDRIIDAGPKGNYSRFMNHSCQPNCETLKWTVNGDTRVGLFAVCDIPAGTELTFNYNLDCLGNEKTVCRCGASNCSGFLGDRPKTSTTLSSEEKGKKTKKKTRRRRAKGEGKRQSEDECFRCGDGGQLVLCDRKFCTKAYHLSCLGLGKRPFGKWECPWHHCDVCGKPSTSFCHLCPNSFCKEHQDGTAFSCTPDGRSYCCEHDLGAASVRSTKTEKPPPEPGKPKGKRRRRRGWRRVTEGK

[22] = biological target: T2, Galanin receptor type 3 (Homo sapiens, UniProt O60755); assay: Fluorescence-based cell-based primary high throughput dose response assay to identify antagonists of the Galanin Receptor 3 (GalR3).; type: functional
T2 sequence (O60755 whole entry): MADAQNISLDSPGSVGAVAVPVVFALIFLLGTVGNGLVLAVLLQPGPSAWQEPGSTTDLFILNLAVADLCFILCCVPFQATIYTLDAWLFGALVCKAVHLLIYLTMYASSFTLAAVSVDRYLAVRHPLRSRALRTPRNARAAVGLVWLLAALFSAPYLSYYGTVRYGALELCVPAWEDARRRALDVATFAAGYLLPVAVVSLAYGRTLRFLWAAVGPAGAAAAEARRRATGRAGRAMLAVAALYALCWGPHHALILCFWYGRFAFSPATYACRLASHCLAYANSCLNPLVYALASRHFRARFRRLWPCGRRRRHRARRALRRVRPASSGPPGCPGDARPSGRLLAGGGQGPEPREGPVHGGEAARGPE

[23] = biological target: T3, DNA repair protein RAD52 homolog (Homo sapiens, UniProt P43351); type: functional, biochemical
T3 sequence (P43351 whole entry): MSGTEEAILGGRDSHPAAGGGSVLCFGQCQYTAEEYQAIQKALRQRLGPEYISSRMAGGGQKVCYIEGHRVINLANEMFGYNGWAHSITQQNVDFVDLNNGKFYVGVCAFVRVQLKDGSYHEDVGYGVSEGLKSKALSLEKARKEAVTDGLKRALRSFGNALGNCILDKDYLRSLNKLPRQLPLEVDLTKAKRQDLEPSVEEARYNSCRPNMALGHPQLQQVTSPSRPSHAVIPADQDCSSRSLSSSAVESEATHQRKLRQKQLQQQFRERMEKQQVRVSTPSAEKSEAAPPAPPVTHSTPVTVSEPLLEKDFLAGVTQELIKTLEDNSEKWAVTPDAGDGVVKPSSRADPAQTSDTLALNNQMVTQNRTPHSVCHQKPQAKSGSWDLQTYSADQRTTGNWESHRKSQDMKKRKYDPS

[24] = biological target: Matrix metalloproteinase-14 (Homo sapiens, UniProt P50281); assay: Dose Response confirmation of uHTS hits for a small molecule inhibitors of MT1-MMP activation in a fluorescence assay set 1.; type: functional
[25] = biological target: Nonstructural protein 1 (Influenza A virus, UniProt Q194T2); type: functional, Influenza A virus (A/California/07/2009(H1N1))
Sequence of Nonstructural protein 1 (Q194T2 whole entry): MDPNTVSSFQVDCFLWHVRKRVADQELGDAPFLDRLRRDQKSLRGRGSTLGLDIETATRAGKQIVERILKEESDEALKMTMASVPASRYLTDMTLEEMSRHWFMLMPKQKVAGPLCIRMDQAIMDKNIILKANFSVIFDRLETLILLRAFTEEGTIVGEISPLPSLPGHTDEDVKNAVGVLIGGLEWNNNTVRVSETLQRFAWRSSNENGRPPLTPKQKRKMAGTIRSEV

[26] = HeLa cell cytotoxicity, dose response, cytotoxicity control for MgcRacGAP inhibitor project (AID 624300); type: functional
[27] = biological target: T4, Rac GTPase-activating protein 1 (Homo sapiens, UniProt Q9H0H5); assay: MgcRacGAP GTPase-activating activity inhibitors, confirmation, biochemical, ADP Hunter fluorescence, primary and confirmatory (AID 624330); type: functional
T4 sequence (Q9H0H5 whole entry): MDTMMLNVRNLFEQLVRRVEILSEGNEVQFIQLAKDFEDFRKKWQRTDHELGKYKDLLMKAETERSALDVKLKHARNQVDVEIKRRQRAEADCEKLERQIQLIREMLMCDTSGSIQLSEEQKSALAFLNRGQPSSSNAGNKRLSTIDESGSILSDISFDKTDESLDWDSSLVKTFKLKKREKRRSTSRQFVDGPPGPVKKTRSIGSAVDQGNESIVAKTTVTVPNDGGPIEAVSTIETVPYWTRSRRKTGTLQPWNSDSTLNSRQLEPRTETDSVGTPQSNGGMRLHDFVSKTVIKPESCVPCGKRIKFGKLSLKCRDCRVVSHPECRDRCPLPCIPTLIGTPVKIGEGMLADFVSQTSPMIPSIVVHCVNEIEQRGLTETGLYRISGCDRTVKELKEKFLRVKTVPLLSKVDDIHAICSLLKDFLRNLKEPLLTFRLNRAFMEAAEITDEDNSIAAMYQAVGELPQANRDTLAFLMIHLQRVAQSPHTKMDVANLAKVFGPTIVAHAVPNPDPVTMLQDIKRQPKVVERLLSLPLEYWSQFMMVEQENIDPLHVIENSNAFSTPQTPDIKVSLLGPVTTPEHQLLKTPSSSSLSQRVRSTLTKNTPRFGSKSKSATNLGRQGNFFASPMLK

## Cc1cc(NC(=O)c2cccc(F)c2)ncc1NC(=O)c1ccco1
[1]
  EC50: 7.21 µM (active)
[2]
  AC50: 26 µM (active)
[3]
  EC50: 7.28 µM (active)

## CC1CCC(C(C)C)C(OC(=O)COC(=O)c2cc(O)ccc2N)C1 (stereo not drawn)
[4]
  EC50: 4.92 µM (active)
[2]
  AC50: 26 µM (active)
[5]
  EC50: > 60 µM (not active)

## O=C(O)c1ccccc1OP(=O)(O)O [FOSFOSAL]
[6]
  IC50: > 20 µM (inactive)
[7]
  IC50: > 20 µM (inactive)
[8]
  IC50: > 20 µM (inactive)
[9]
  IC50: > 20 µM (inactive)
[10]
  IC50: > 20 µM (inactive)
[11]
  IC50: > 20 µM (inactive)
[12]
  IC50: > 20 µM (inactive)

## Sc1nc2ccccc2n2c(S)nnc12
[13]
  IC50: > 138 µM (inactive)

## CCN1CCN(Cc2ccc(NC(=O)c3cc(NC(=O)c4cc5cccc(OC)c5o4)cc(OC)c3)cc2C(F)(F)F)CC1
[14]
  AC50: 12.1 µM (active)
[15]
  AC50: 4.28 µM (active)
[16]
  EC50: > 89.2 µM (inactive)
[17]
  AC50: 9.77 µM (active)
[18]
  AC50: 8.76 µM (active)

## CN(C)c1ccc(C=c2c3ccccc3n3c2c2c([n+]3C)CCCC2)cc1
[19]
  IC50: 71.1 µM (inactive)
[20]
  EC50: > 29.9 µM (inactive)
[21]
  AC50: 7.63 µM (active)
[22]
  IC50: 1.31 µM (active)
[23]
  AC50: 914 nM (active)
[24]
  IC50: > 80 µM (inactive)
[25]
  IC50: 11 µM (active)
[26]
  CC50: 16.9 µM (active)
[27]
  IC50: 38.3 µM (active)
